The RepoRT retention time repository

assay: HILIC, Waters Atlantis Premier BEH Z-HILIC, 100 × 2.1 mm, 1.7 µm, 40 °C, 0.15 mL/min, estimated dead time 1.5 min; A: water + 20 mM ammonium carbonate + 5 µM medronic acid; B: 10% water + 90% acetonitrile + 2 mM ammonium carbonate + 0.5 µM medronic acid; gradient (min/%B) 0/100 18/55 18.1/20 21.5/20 22/100 23.5/100 25.5/100; details: stereoisomer not certain

Compared with NC(=O)C1=CN(C2OC(COP(=O)(O)OP(=O)(O)OCC3OC(n4cnc5c(N)ncnc54)C(O)C3O)C(O)C2O)C=CC1 (stereo not given) [NADH], NC(=O)C1=CN(C2OC(COP(=O)(O)OP(=O)(O)OCC3OC(n4cnc5c(N)ncnc54)C(OP(=O)(O)O)C3O)C(O)C2O)C=CC1 (stereo not given) [NADPH] is 1.8-fold higher in LC retention time: 7.99 min for the first, 14.7 min for the second.

O=C(CO)C(O)C(O)C(O)COP(=O)(O)O (stereo not given) [Fructose 6-phosphate] and O=P(O)(O)OCC(O)CO (stereo not given) [Glycerol-3-phosphate] are within 1.5-fold of each other in LC retention time: 12 min for the first, 9.84 min for the second.

NC(=O)CCC(N)C(=O)O (stereo not given) [Glutamine] and NC(CCC(=O)O)C(=O)O (stereo not given) [Glutamic acid] are within 1.5-fold of each other in LC retention time: 10.4 min for the first, 9.29 min for the second.

O=C(O)C(CO)OP(=O)(O)O (stereo not given) [Phosphoglyceric acid A] and C=C(OP(=O)(O)O)C(=O)O [PEP] are within 1.5-fold of each other in LC retention time: 13.3 min for the first, 14.4 min for the second.

O=C(O)CCCCC1SCC2NC(=O)NC21 (stereo not given) [Biotin] and O=C1CC(C(=O)O)NC(=O)N1 (stereo not given) [dihydroorotic acid] are within 1.5-fold of each other in LC retention time: 4.6 min for the first, 4.02 min for the second.

O=C(O)CCC(=O)O [Succinic Acid] and O=C(O)CCC(=O)C(=O)O [2-Oxoglutaric acid] are within 1.5-fold of each other in LC retention time: 9.39 min for the first, 8.62 min for the second.

O=C(CO)COP(=O)(O)O [Triose phosphate] and O=P(O)(O)OCC1OC(O)C(O)C(O)C1O (stereo not given) [Glucose-6-phosphate] are within 1.5-fold of each other in LC retention time: 9.84 min for the first, 12.6 min for the second.

Going from O=C(O)CCC(O)C(=O)O (stereo not given) [2-hydroxy glutaric acid] to O=C(O)CC(C(=O)O)C(O)C(=O)O (stereo not given) [Isocitric acid], the LC retention time rises from 9.58 min to 14.5 min (1.5-fold).

Compared with Cc1cc2nc3c(=O)[nH]c(=O)nc-3n(CC(O)C(O)C(O)COP(=O)(O)OP(=O)(O)OCC3OC(n4cnc5c(N)ncnc54)C(O)C3O)c2cc1C (stereo not given) [FAD], Nc1ncnc2c1ncn2C1OC(COP(=O)(O)OP(=O)(O)OP(=O)(O)O)C(O)C1O (stereo not given) [ATP] is 2-fold higher in LC retention time: 7.27 min for the first, 14.3 min for the second.

CC(=O)SCCNC(=O)CCNC(=O)C(O)C(C)(C)COP(=O)(O)OP(=O)(O)OCC1OC(n2cnc3c(N)ncnc32)C(O)C1OP(=O)(O)O (stereo not given) [Acetyl-CoA] and CC(C)(COP(=O)(O)OP(=O)(O)OCC1OC(n2cnc3c(N)ncnc32)C(O)C1OP(=O)(O)O)C(O)C(=O)NCCC(=O)NCCS (stereo not given) [CoenzymeA] are within 1.5-fold of each other in LC retention time: 9.49 min for the first, 11.9 min for the second.

CC(C)CC(N)C(=O)O (stereo not given) [Leucine] and CCC(C)C(N)C(=O)O (stereo not given) [Isoleucine] are within 1.5-fold of each other in LC retention time: 6.08 min for the first, 6.3 min for the second.

Going from CCC(=O)OC(CC(=O)[O-])C[N+](C)(C)C (stereo not given) [carnitine-C3] to C[N+](C)(C)CC(O)CC(=O)[O-] (stereo not given) [Carnitine], the LC retention time rises from 6.33 min to 9.95 min (1.6-fold).

Nc1ncnc2c1ncn2C1OC(COP(=O)(O)OP(=O)(O)O)C(O)C1O (stereo not given) [ADP] and Nc1ncnc2c1ncn2C1OC(COP(=O)(O)O)C(O)C1O (stereo not given) [AMP] are within 1.5-fold of each other in LC retention time: 11.9 min for the first, 8.82 min for the second.

CC(=O)NC1C(OP(=O)(O)OP(=O)(O)OCC2OC(n3ccc(=O)[nH]c3=O)C(O)C2O)OC(CO)C(O)C1O (stereo not given) [UDP-GlcNAc] and NC(=O)c1ccc[n+](C2OC(COP(=O)(O)OP(=O)(O)OCC3OC(n4cnc5c(N)ncnc54)C(O)C3O)C(O)C2O)c1 (stereo not given) [NAD] are within 1.5-fold of each other in LC retention time: 9.63 min for the first, 10.5 min for the second.

Compared with O=C(O)CC(O)(CC(=O)O)C(=O)O [Citric acid], CC(O)C(=O)O (stereo not given) [Lactic Acid] is 4.4-fold lower in LC retention time: 14.7 min for the first, 3.36 min for the second.

NC(=O)c1ccc[n+](C2OC(COP(=O)(O)OP(=O)(O)OCC3OC(n4cnc5c(N)ncnc54)C(OP(=O)(O)O)C3O)C(O)C2O)c1 (stereo not given) [NADP] and Nc1nc2c(ncn2C2OC(COP(=O)(O)OP(=O)(O)OP(=O)(O)O)C(O)C2O)c(=O)[nH]1 (stereo not given) [GTP] are within 1.5-fold of each other in LC retention time: 13.8 min for the first, 17.1 min for the second.

Compared with Nc1ncnc2c1ncn2C1OC(CO)C(O)C1O (stereo not given) [Adenosine], OCC1OC(O)C(O)C(O)C1O (stereo not given) [Hexose] is 1.9-fold higher in LC retention time: 3.65 min for the first, 6.94 min for the second.

Compound O=P(O)(O)OCC1OC(O)(COP(=O)(O)O)C(O)C1O (stereo not given) [Fructose-1,6-bisphosphate] has an LC retention time of 16.6 min.
